Measurements taken from US5763477A, “Taxane derivatives from 14-β-hydroxy-10 deacetylbaccatin III” (Dr. Reddy's Research Foundation, priority 1994, dated 1998).
Like-named read-outs stand apart in the source and are kept apart here. Each block holds one compound with its values, some of them ahead of it.

Legend:
Assay type in all cases: cell-based
[1] = test system: SW 620; assay: In vitro anti-cancer activity, colon cancer, cell line SW 620; conditions: Homo sapiens
Description: (§1) In particular, these compounds are related to taxol, the recently FDA approved anticancer drug, and its various analogues having an additional hydroxyl group at C-14 position of the taxane skeleton. […] Selectivity and sensitivity were particularly good at 0.01 to 1 μm concentrations at G150 level (concentrations of the agent in the assay that produced 50 0 growth inhibition).
(§2) IN VITRO ANTI-CANCER ACTIVITY DATA OF 7,10-DIMETHYLACETONIDO 14-HYDROXY TAXOL (Compound 23) ON LEUKEMIA, OVARIAN AND BREAST CANCER CELL LINES IN COMPARISON TO TAXOL
(§3) All the values are given in μm concentrations:
(§4) The notations GI50, TGI refer to the concentrations of the agent in the assay that produced 50% growth inhibition, total growth inhibition respectively.

[2] = test system: Molt-4; assay: In vitro anti-cancer activity, leukemia, cell line Molt-4; conditions: Homo sapiens
Description: as §1, §2, §3, §4

[3] = test system: MDA-N; assay: In vitro anti-cancer activity, breast cancer, cell line MDA-N; conditions: Homo sapiens
Description: as §1, §2, §3, §4

[4] = test system: OVCAR5; assay: In vitro anti-cancer activity, ovarian cancer, cell line OVCAR5; conditions: Homo sapiens, OVCAR-5
Description: as §1, §2, §3, §4

[5] = test system: HCT 15; assay: In vitro anti-cancer activity, colon cancer, cell line HCT 15; conditions: Homo sapiens
[6] = test system: K-562; assay: In vitro anti-cancer activity, leukemia, cell line K-562; conditions: Homo sapiens, K562
Description: as §1, §2, §3, §4

[7] = test system: OVCAR3; assay: In vitro anti-cancer activity, ovarian cancer, cell line OVCAR3; conditions: Homo sapiens, OVCAR-3
Description: as §1, §2, §3, §4

[8] = test system: RPMI-8226; assay: In vitro anti-cancer activity, leukemia, cell line RPMI-8226; conditions: Homo sapiens
Description: as §1, §2, §3, §4

[9] = test system: KM12; assay: In vitro anti-cancer activity, colon cancer, cell line KM12; conditions: Homo sapiens
[10] = test system: MDA-MB 231; assay: In vitro anti-cancer activity, breast cancer, cell line MDA-MB 231; conditions: Homo sapiens
Description: as §1, §2, §3, §4

[11] = test system: BT 549; assay: In vitro anti-cancer activity, breast cancer, cell line BT 549; conditions: Homo sapiens
Description: as §1, §2, §3, §4

[12] = test system: OVCAR4; assay: In vitro anti-cancer activity, ovarian cancer, cell line OVCAR4; conditions: Homo sapiens, OVCAR-4
Description: as §1, §2, §3, §4

[13] = test system: T47D; assay: In vitro anti-cancer activity, breast cancer, cell line T47D; conditions: Homo sapiens
Description: as §1, §2, §3, §4

[14] = test system: HCT 116; assay: In vitro anti-cancer activity, colon cancer, cell line HCT 116; conditions: Homo sapiens
[15] = test system: H5578T; assay: In vitro anti-cancer activity, breast cancer, cell line H5578T
Description: as §1, §2, §3, §4

[16] = test system: HL60; assay: In vitro anti-cancer activity, leukemia, cell line HL60; conditions: Homo sapiens, HL-60
Description: as §1, §2, §3, §4

[17] = test system: MCF7; assay: In vitro anti-cancer activity, breast cancer, cell line MCF7; conditions: Homo sapiens
Description: as §1, §2, §3, §4

[18] = test system: SR; assay: In vitro anti-cancer activity, leukemia, cell line SR; conditions: Homo sapiens
Description: as §1, §2, §3, §4

[19] = test system: IGR-OV1; assay: In vitro anti-cancer activity, ovarian cancer, cell line IGR-OV1; conditions: Homo sapiens, IGROV-1
Description: as §1, §2, §3, §4

[20] = test system: HT-29; assay: In vitro anti-cancer activity, colon cancer, cell line HT-29; conditions: Homo sapiens
[21] = test system: MDA-MB 435; assay: In vitro anti-cancer activity, breast cancer, cell line MDA-MB 435; conditions: Homo sapiens
Description: as §1, §2, §3, §4

[22] = test system: three ovarian cancer cell lines; assay: Activity on three ovarian cancer cell lines (National Cancer Institute protocols)
Description: as §1

[23] = test system: three leukemia cell lines; assay: Activity on three leukemia cell lines (National Cancer Institute protocols)
Description: as §1

[24] = test system: leukemia, colon cancer and ovarian cancer cell lines; assay: Selectivity and sensitivity (National Cancer Institute protocols); conditions: towards leukemia
Description: as §1

[25] = read-out: TGI (total growth inhibition)
[26] = breast cancer, read-out: TGI (total growth inhibition)

Compound: CC(=O)O[C@H]1C(=O)[C@@]2(C)[C@H]([C@H](OC(=O)c3ccccc3)[C@]3(O)C[C@H](OC(=O)[C@H](O)[C@@H](NC(=O)c4ccccc4)c4ccccc4)C(C)=C1C3(C)C)[C@]1(OC(C)=O)CO[C@@H]1C[C@@H]2O [Taxol, reference compound]
- GI50 ([1]; SW-620): 20 nM
- GI50 ([2]; MOLT-4): 53 nM
- GI50 [3]: 4 nM
- TGI (total growth inhibition concentration) [3, 25]: 0.015 µM
- GI50 [4]: 75 nM
- GI50 ([5]; HCT-15): 570 nM
- GI50 [6]: 15 nM
- GI50 [7]: 22 nM
- GI50 [8]: 6 nM
- GI50 [9]: 16 nM
- GI50 ([10]; MDA-MB-231): 100 nM
- IC (total growth inhibition) ([10]; MDA-MB-231, read-out: TGI (total growth inhibition)): 0.67 µM
- GI50 ([11]; BT-549): 60 nM
- IC (total growth inhibition) ([11]; BT-549, read-out: TGI (total growth inhibition)): 0.7 µM
- GI50 [12]: 380 nM
- GI50 [13]: 109 nM
- TGI (total growth inhibition) [13, 25]: 1 µM
- GI50 ([14]; HCT-116): 19 nM
- GI50 [15]: 12 nM
- TGI (total growth inhibition) [15, 25]: 0.15 µM
- GI50 [16]: 10 nM
- GI50 ([17]; MCF7): 9 nM
- IC (total growth inhibition) ([17]; MCF7, read-out: TGI (total growth inhibition)): 1 µM
- GI50 [18]: 33 nM
- GI50 [19]: 28 nM
- GI50 [20]: 8 nM
- GI50 ([21]; MDA-MB-435): 6 nM
- IC (total growth inhibition) ([21]; MDA-MB-435, read-out: TGI (total growth inhibition)): 0.025 µM

- GI50 ([1]; colon cancer, SW 620, read-out: GI50): 131 nM
- GI50 ([2]; leukemia, Molt-4, read-out: GI50): 267 nM
- GI50 ([3]; breast cancer, read-out: GI50): 33 nM
- GI50 ([4]; ovarian cancer, OVCAR5, read-out: GI50): 770 nM
- GI50 ([5]; colon cancer, HCT 15, read-out: GI50): 2140 nM
- GI50 ([6]; leukemia, K-562, read-out: GI50): 247 nM
- GI50 ([7]; ovarian cancer, OVCAR3, read-out: GI50): 131 nM
- GI50 ([8]; leukemia, read-out: GI50): 57 nM
- GI50 ([9]; colon cancer, read-out: GI50): 77 nM
- GI50 ([10]; breast cancer, MDA-MB 231, read-out: GI50): 500 nM
- GI50 ([11]; breast cancer, BT 549, read-out: GI50): 443 nM
- GI50 ([12]; ovarian cancer, OVCAR4, read-out: GI50): 1860 nM
- GI50 ([13]; breast cancer, read-out: GI50): 158 nM
- GI50 ([14]; colon cancer, HCT 116, read-out: GI50): 228 nM
- GI50 ([15]; breast cancer, H5578T, read-out: GI50): 137 nM
- GI50 ([16]; leukemia, HL60, read-out: GI50): 44 nM
- GI50 ([17]; breast cancer, MCF7, read-out: GI50): 70 nM
- GI50 ([18]; leukemia, read-out: GI50): 84 nM
- GI50 ([19]; ovarian cancer, IGR-OV1, read-out: GI50): 66 nM
- GI50 ([20]; colon cancer, read-out: GI50): 79 nM
- GI50 ([21]; breast cancer, MDA-MB 435, read-out: GI50): 30 nM
Compound: CC(=O)O[C@@]12CO[C@@H]1C[C@@H]1OC(C)(C)O[C@H]3C(=O)[C@@]1(C)[C@@H]2[C@H](OC(=O)c1ccccc1)[C@]1(O)[C@@H](O)[C@H](OC(=O)[C@H](O)[C@@H](NC(=O)c2ccccc2)c2ccccc2)C(C)=C3C1(C)C [Compound 23, 7,10-dimethyl acetonido-14-hydroxy taxol]
- IC (total growth inhibition) [3, 26]: 0.12 µM
- IC50 [22]: < 1000 nM
- IC50 [23]: < 100 nM
- IC (total growth inhibition) ([10]; breast cancer, MDA-MB 231, read-out: TGI (total growth inhibition)): > 30 µM
- IC (total growth inhibition) ([11]; breast cancer, BT 549, read-out: TGI (total growth inhibition)): 11.2 µM
- IC (total growth inhibition) [13, 26]: 17.7 µM
- IC (total growth inhibition) ([15]; breast cancer, H5578T, read-out: TGI (total growth inhibition)): 0.89 µM
- selectivity and sensitivity [24]: good selectivity and sensitivity
- IC (total growth inhibition) ([17]; breast cancer, MCF7, read-out: TGI (total growth inhibition)): > 30 µM
- IC (total growth inhibition) ([21]; breast cancer, MDA-MB 435, read-out: TGI (total growth inhibition)): 0.12 µM
